Assay results: patent US20240294543A1, “CYCLOHEPTA-THIENO-DIAZEPINE DERIVATIVES AS GABA A GAMMA1 PAM” (Hoffmann-La Roche Inc., priority 2021, published 2024)
Like-named read-outs stand apart in the source and are kept apart here.

Key:
[1] = target: human GABAA α5β2γ1 receptor (Homo sapiens (Human), UniProt P31644+Q8N1C3); assay: Radioligand binding assay, competition for [3H]RO7239181, γ1-containing GABAA subtypes
Method: The affinity of compounds at GABAA γ1 subunit-containing receptors was measured by competition for [^3H]RO7239181 (67.3 Ci/mmol; Roche) binding to membranes from HEK293F cells (ThermoFisher R79007) expressing human (transiently transfected) receptors of composition α5β2γ1, α2β2γ1, α1β2γ1. For better protein expression of the α2 subunit-containing receptors, the 28 amino acid long signal peptide (Met1 to Ala28) of the human GABAA α2 subunit was substituted by the 31 amino acid long signal peptide (Met1 to Ser31) of human GABAA α5 subunit.
(§1) Harvested pellets from HEK293F cells expressing the different GABAA receptor subtypes were resuspended in Mannitol Buffer pH 7.2-7.4 (Mannitol 0.29 M, Triethylamine 10 mM, Acetic acid 10 mM, EDTA 1 mM plus protease inhibitors (20 tablets Complete, Roche Diagnostics Cat. No. 05 056 489 001 per liter)), washed two times and then resuspended at 1:10 to 1:15 dilution in the same buffer. Cell disruption was performed by stirring the suspension in a Parr vessel #4637 at 435 psi for 15 minutes, and then the suspensions were centrifuged at 1000×g for 15 minutes at 4° C. (Beckman Avanti J-HC; rotor JS-4.2). The supernatant (S1) was transferred in a 21 Schott flask and the pellet (P1) was resuspended with Mannitol Buffer up to 175 ml. The resuspended pellet was transferred into a 250 ml Corning centrifugal beaker and centrifuged at 1500×g for 10 minutes at 4° C. (Beckman Avanti J-HC; rotor JS-4.2). The supernatant (S1) was then transferred in the 21 Schott flask and the pellet was discarded. The supernatants (S1) were centrifuged in 500 ml Beckman polypropylene centrifugal beaker at 15'000×g for 30 minutes at 4° C. (Beckman Avanti J-20 XP; rotor JLA-10.500). The pellet (P2) was resuspended with Mannitol Buffer 1:1 and frozen at −80° C. The supernatant (S2) was centrifuged in 100 ml Beckman polypropylene centrifugal tubes at 48000×g for 50 minutes at 4° C. (Beckman Avanti J-20 XP; rotor JA-18). The supernatant (S3) was discarded and the pellet (P3) was resuspended with 1:1 Mannitol Buffer. The P2 and P3 protein concentration was determined with the BIORAD Standard assay method with bovine serum albumin as standard and measured on the NANO-Drop 1000. The membrane suspension was aliquots (500 μl per tube) and stored at −80° C. until required.
(§2) Membrane homogenates were resuspended and polytronised (Polytron PT1200E Kinematica AG) in Potassium Phosphate 10 mM, KCl 100 mM binding buffer at pH 7.4 to a final assay concentration determined with a previous experiment.
Radioligand binding assays were carried out in a volume of 200 μL (96-well plates) which contained 100 μL of cell membranes, [^3H]RO7239181 at a concentration of 1.5 nM (α5β2γ1) or 20-30 nM (α1β2γ1, α2β2γ1) and the test compound in the range of [0.3-10000]×10^−9 M. Nonspecific binding was defined by 10×10^−6 (α5β2γ1) and 30×10^−6 M RO7239181 and typically represented less than 5% (α5β2γ1) and less than 20% (α1β2γ1, α2β2γ1) of the total binding. Assays were incubated to equilibrium for 1 hour at 4° C. and then, membranes were filtered onto unifilter (96-well white microplate with bonded GF/C filters preincubated 20-50 minutes in 0.3% Polyethylenimine) with a Filtermate 196 harvester (Packard BioScience) and washed 4 times with cold Potassium Phosphate 10 mM pH 7.4, KCl 100 mM binding buffer. After anhydrousing, filter-retained radioactivity was detected by liquid scintillation counting. Ki values were calculated using Excel-Fit (Microsoft) and are the means of two determinations.

[2] = target: human GABAA α1β3γ2 receptor (Homo sapiens (Human), UniProt P14867+P18507); assay: Radioligand binding assay, competition for [3H]Flumazenil, γ2-containing GABAA subtypes; details: for γ2/γ1 Selectivity Ratio: Ki α1β3γ2 (nM)/Ki α2β2γ1 (nM); for LogSel: Log[Ki α1β3γ2 (nM)/Ki α2β2γ1 (nM)]
Method: The affinity of compounds at GABAA γ2 subunit-containing receptors was measured by competition for [^3H]Flumazenil (81.1 Ci/mmol; Roche) binding to HEK293F cells expressing human (transiently transfected) receptors of composition α1β3γ2.
Harvested pellets from HEK293F cells expressing the different GABAA γ2 receptor subtypes were resuspended in Mannitol Buffer pH 7,2-7,4 and processed as described above for the cells expressing the GABAA γ1 subunit-containing receptors.
Assays were incubated to equilibrium for 1 hour at 4° C. and harvested onto GF/C uni-filters (Packard) by filtration using a Packard harvester and washing with ice-cold wash buffer (50 mM Tris; pH 7.5). After anhydrousing, filter-retained radioactivity was detected by liquid scintillation counting. Ki values were calculated using Excel-Fit (Microsoft) and are the means of two determinations.

[3] = target: human GABAA α2β2γ1 receptor (Homo sapiens (Human), UniProt P47869+Q8N1C3); assay: Radioligand binding assay, competition for [3H]RO7239181, γ1-containing GABAA subtypes
Method: The affinity of compounds at GABAA γ1 subunit-containing receptors was measured by competition for [^3H]RO7239181 (67.3 Ci/mmol; Roche) binding to membranes from HEK293F cells (ThermoFisher R79007) expressing human (transiently transfected) receptors of composition α5β2γ1, α2β2γ1, α1β2γ1.
as §1, §2
Assays were incubated to equilibrium for 1 hour at 4° C. and then, membranes were filtered onto unifilter (96-well white microplate with bonded GF/C filters preincubated 20-50 minutes in 0.3% Polyethylenimine) with a Filtermate 196 harvester (Packard BioScience) and washed 4 times with cold Potassium Phosphate 10 mM pH 7.4, KCl 100 mM binding buffer. After anhydrousing, filter-retained radioactivity was detected by liquid scintillation counting. Ki values were calculated using Excel-Fit (Microsoft) and are the means of two determinations.

h-GABA-A α2β2γ1 = h-GABA-A α2β2γ1 (Homo sapiens (Human), UniProt P47869+Q8N1C3); assay: Two-electrode voltage clamp electrophysiology in Xenopus oocytes expressing GABAA receptors; format: cell-based; details: α2β2γ1 GABAA receptor subtype expressing oocytes, reference PAMs
Method: Xenopus Oocytes Preparation Xenopus laevis oocytes at maturation stages V-VI were used for the expression of cloned mRNA encoding GABAA receptor subunits. Oocytes ready for RNA micro-injection were bought from Ecocyte, Castrop-Rauxel, Germany and stored in modified Barth's medium (composition in mM: NaCl 88, KCl 1, NaHCO3 2.4, HEPES 10, MgSO4 0.82, CaNO3 0.33, CaCl2 0.33, pH=7.5) at 20° C. until the experiment.
Oocytes were plated in 96-well plates for microinjection using the Roboinject automated instrument (MultiChannelSystems, Reutlingen, Germany). Approximately 50 nL of an aqueous solution containing the RNA transcripts for the subunits of the desired GABAA receptor subtype was injected into each oocyte. […] Oocytes were kept in modified Barth's medium (composition in mM: NaCl 88, KCl 1, NaHCO3 […], HEPES 10, MgSO4 0.82, CaNO3 0.33, CaCl2 0.33, pH=7.5) at 20° C. until the experiment.
Electrophysiological experiments were performed using the Roboocyte instrument (MultiChannelSystems, Reutlingen, Germany) on days 3 to 5 after the micro-injection of mRNA. During the experiment the oocytes were constantly superfused by a solution containing (in mM) NaCl 90, KCl 1, HEPES 5, MgCl2 1, CaCl2 1 (pH 7.4). Oocytes were impaled by two glass microelectrodes (resistance: 0.5-0.8 MQ) which were filled with a solution containing KCl 1M+K-acetate 1.5 M and voltage-clamped to −80 mV. The recordings were performed at room temperature using the Roboocyte two-electrode voltage clamp system (Multichannelsystem). After an initial equilibration period of 1.5 min GABA was added for 1.5 min at a concentration evoking approximately 20% of a maximal current response (EC20). After another rest interval of 2.5 min GABA was again added evoking a response of similar amplitude and shape. […] Current traces were recorded at a digitization rate of 10 Hz during and shortly before and after the GABA application.
Each compound and concentration was tested on at least 3 oocytes. Different oocytes were used for different compound concentrations.
For the analysis, the digitized current traces of the first and second GABA response were superimposed and, if necessary, rescaled to equal maximal amplitudes. The ratio between the two responses during the time interval of test compound application was calculated point by point. The extremum of the resulting “ratio trace” was taken as the efficacy (“Fold increase”) of the compound expressed as “% modulation of GABA EC20” (100*(Fold increase−1)).

[4] = Ki h-GABAA α2β2γ1, membranes of HEK293F cells, [3H]RO7239181 20-30 nM, Table 1
[5] = Ki h-GABAA α2β2γ1, membranes of HEK293F cells, [3H]RO7239181 20-30 nM, Table 2
[6] = HEK293F cells, [3H]Flumazenil 1 nM, Table 1, read-out: Ki h-GABAA α1β3γ2

Row | Structure (SMILES) | Ki [1] [nM] | γ2/γ1 Selectivity Ratio ([2]; Table 1) | LogSel ([2]; Table 1) | Ki [3, 4] [nM] | Ki [3, 5] [nM] | LogSel ([2]; Table 3) | other results
1 | Cc1cn2c(n1)[C@H](C)N=C(c1c(F)cccc1F)c1c-2sc2c1COCCC2 [Example 58, (7S)-9-(2,6-difluorophenyl)-4,7-dimethyl-13-oxa-18-thia-2,5,8-triazatetracyclo[8.8.0.02,6.011,17]octadeca-1(10),3,5,8,11(17)-pentaene] | 2.59 | 56.0 | 1.75 | 25 | 25 |  | Ki [2]: 1400 nM
2 | CN1C(=O)CN=C(c2ccccc2F)c2cc([N+](=O)[O-])ccc21 [Flunitrazepam, reference compound] |  |  |  |  |  |  | potentiation of the GABA-induced current (h-GABA-A α2β2γ1): ~60%
3 | Cc1nnc2n1-c1sc3c(c1C(c1c(F)cccc1F)=N[C@H]2C)COCC[C@H]3F [Example 54, (7S,16R)-9-(2,6-difluorophenyl)-16-fluoro-3,7-dimethyl-13-oxa-18-thia-2,4,5,8-tetrazatetracyclo[8.8.0.02,6.011,17]octadeca-1(10),3,5,8,11(17)-pentaene] | 9.1 | 141.9 |  | 35.8 | 35.8 |  | Ki [2]: 5080 nM
4 | Cc1nnc2n1-c1ccc(Cl)cc1C(c1ccccc1Cl)=NC2 [Triazolam, reference compound] |  |  |  |  |  | −1.5 | potentiation of the GABA-induced current (h-GABA-A α2β2γ1): ~60%
5 | C[C@@H]1N=C(c2c(F)cccc2F)c2c(sc3c2COCCC3)-n2nc(C(=O)NCC(C)(C)O)nc21 [Example 71, (7S)-9-(2,6-difluorophenyl)-N-(2-hydroxy-2-methyl-propyl)-7-methyl-13-oxa-18-thia-2,3,5,8-tetrazatetracyclo[8.8.0.02,6.011,17]octadeca-1(10),3,5,8,11(17)-pentaene-4-carboxamide] | 7.3 | 49.0 | 1.69 | 80 | 80 |  | Ki [2, 6]: 3920 nM
6 | C[C@@H]1N=C(c2c(F)cccc2F)c2c(sc3c2COCCO3)-n2nc(C(=O)NCC3(O)CC3)nc21 [Example 60, (7S)-9-(2,6-difluorophenyl)-N-[(1-hydroxycyclopropyl)methyl]-7-methyl-13,16-dioxa-18-thia-2,3,5,8-tetrazatetracyclo[8.8.0.02,6.011,17]octadeca-1(10),3,5,8,11(17)-pentaene-4-carboxamide] | 2.86 | 157.4 | 2.20 | 23.4 | 23.4 |  | Ki [2, 6]: 3690 nM
7 | [2H]C1([2H])OCc2c(sc3c2C(c2c(F)cccc2F)=N[C@@H](C)c2nc(C(=O)N4CC(OCC)C4)nn2-3)OC1([2H])[2H] [Example 32, (3-Ethoxyazetidin-1-yl)-[(7S)-14,14,15,15-tetradeuterio-9-(2,6-difluorophenyl)-7-methyl-13,16-dioxa-18-thia-2,3,5,8-tetrazatetracyclo[8.8.0.02,6.011,17]octadeca-1(10),3,5,8,11(17)-pentaen-4-yl]methanone] | 1.88 | 747.9 | 2.87 | 7.7 | 7.7 |  | Ki [2, 6]: 5780 nM
8 | Cc1nnc2n1-c1sc3c(c1C(c1c(F)cccc1F)=N[C@H]2C)CCCC3 [RE-B, (7S)-9-(2,6-difluorophenyl)-3,7-dimethyl-17-thia-2,4,5,8-tetrazatetracyclo[8.7.0.02,6.011,16]heptadeca-1(10),3,5,8,11(16)-pentaene, reference compound] |  |  |  |  |  |  | Ki [2]: 21.6 nM; γ2/γ1 Selectivity Ratio ([2]; Table 3): 2.68; Ki ([3]; Ki h-GABAA α2β2γ1, Table 3, reference compounds and examples): 57.7 nM
9 | Cc1ncc2n1-c1ccc(Cl)cc1C(c1ccccc1F)=NC2 [Midazolam, reference compound] |  |  |  |  |  | −2.2 | potentiation of the GABA-induced current (h-GABA-A α2β2γ1): ~60%
10 | Cc1nnc2n1-c1ccc(Cl)cc1C(c1ccccc1)=NC2 [Alprazolam, reference compound] |  |  |  |  |  | −2.3 | 
11 | Clc1ccc2c(c1)C(c1ccccc1)=NCc1nncn1-2 [Estazolam, reference compound] |  |  |  |  |  | −2.0 | γ2/γ1 Selectivity Ratio ([2]; Table 3): 0.0089
